# Results published in patent US7846655B2, “Compositions and methods for detecting a non plus-stranded RNA virus” (priority 2003, dated 2010).
# Read-outs that look alike come from different tables or passages of the source.
# Legend:
# [1] = system: influenza A; assay type: cell-based; conditions: FluA, 24 hours, control 189 ± 012
# [2] = system: parainfluenza 1; assay type: cell-based; conditions: Para1, 24 hours, control 245 ± 018
# [3] = system: adenovirus; assay type: cell-based; conditions: Adeno, 24 hours, control 863 ± 100
# [4] = system: influenza B; assay type: cell-based; conditions: FluB, 24 hours, control 455 ± 022
# [5] = system: parainfluenza 2; assay type: cell-based; conditions: Para2, 24 hours, control 243 ± 012
# [6] = system: parainfluenza 3; assay type: cell-based; conditions: Para3, 24 hours, control 142 ± 014
# [7] = system: RSV; assay type: cell-based; conditions: 24 hours, control 116 ± 012
# [8] = system: human coronavirus 229E; assay: Replication of human coronavirus 229E (inventors' data, E64); assay type: cell-based; conditions: no conditions given
# [9] = system: SARS-coronavirus; conditions: Yount et al. PNAS 100:12995-13000 (2003); cited from earlier work
# [10] = Glycycrrhizin 0.152 micrograms/ml
# [11] = Glycycrrhizin 1.216 micrograms/ml
# [12] = Glycycrrhizin 6.08 micrograms/ml
compound,measurement,setting,value
"CC(C)C[C@H](NC(=O)[C@H]1O[C@@H]1C(=O)O)C(=O)NCCCCN=C(N)N (relative stereo) [E64, trans-Epoxysuccinyl-L-leucylamido-(4-guanidino)butane]",Number of Infected Foci In R-Mix Cell Cultures,[1]; E64 0.5 micrograms/ml,174
same,Number of Infected Foci In R-Mix Cell Cultures,[1]; E64 5 micrograms/ml,179
same,Number of Infected Foci In R-Mix Cell Cultures,[1]; E64 10 micrograms/ml,176
same,Number of Infected Foci In R-Mix Cell Cultures,[2]; E64 0.5 micrograms/ml,251
same,Number of Infected Foci In R-Mix Cell Cultures,[2]; E64 5 micrograms/ml,243
same,Number of Infected Foci In R-Mix Cell Cultures,[2]; E64 10 micrograms/ml,207
same,Number of Infected Foci In R-Mix Cell Cultures,[3]; E64 0.5 micrograms/ml,904
same,Number of Infected Foci In R-Mix Cell Cultures,[3]; E64 5 micrograms/ml,868
same,Number of Infected Foci In R-Mix Cell Cultures,[3]; E64 10 micrograms/ml,865
same,Number of Infected Foci In R-Mix Cell Cultures,[4]; E64 0.5 micrograms/ml,398
same,Number of Infected Foci In R-Mix Cell Cultures,[4]; E64 5 micrograms/ml,328
same,Number of Infected Foci In R-Mix Cell Cultures,[4]; E64 10 micrograms/ml,323
same,Number of Infected Foci In R-Mix Cell Cultures,[5]; E64 0.5 micrograms/ml,223
same,Number of Infected Foci In R-Mix Cell Cultures,[5]; E64 5 micrograms/ml,221
same,Number of Infected Foci In R-Mix Cell Cultures,[5]; E64 10 micrograms/ml,205
same,Number of Infected Foci In R-Mix Cell Cultures,[6]; E64 0.5 micrograms/ml,127
same,Number of Infected Foci In R-Mix Cell Cultures,[6]; E64 5 micrograms/ml,99
same,Number of Infected Foci In R-Mix Cell Cultures,[7]; E64 0.5 micrograms/ml,107
same,Number of Infected Foci In R-Mix Cell Cultures,[7]; E64 5 micrograms/ml,115
same,Number of Infected Foci In R-Mix Cell Cultures,[7]; E64 10 micrograms/ml,103
same,replication of human coronavirus 229E,[8],inhibition in replication
"CCOC(=O)[C@H]1O[C@@H]1C(=O)N[C@@H](CC(C)C)C(=O)NCCC(C)C [(2S,3S)transepoxysuccinyl-L-leucylamido-3-methylbutane ethyl ester]",replication of SARS-coronavirus,[9],inhibition in replication
CCCCC[C@H](CC(=O)NO)C(=O)N[C@H](C(=O)N1CCC[C@H]1CO)C(C)C [Actinonin],Number of Infected Foci In R-Mix Cell Cultures,[1]; Actinonin 10 micrograms/ml,171
same,Number of Infected Foci In R-Mix Cell Cultures,[1]; Actinonin 20 micrograms/ml,122
same,Number of Infected Foci In R-Mix Cell Cultures,[1]; Actinonin 40 micrograms/ml,118
same,Number of Infected Foci In R-Mix Cell Cultures,[2]; Actinonin 10 micrograms/ml,222
same,Number of Infected Foci In R-Mix Cell Cultures,[2]; Actinonin 20 micrograms/ml,191
same,Number of Infected Foci In R-Mix Cell Cultures,[2]; Actinonin 40 micrograms/ml,160
same,Number of Infected Foci In R-Mix Cell Cultures,[3]; Actinonin 10 micrograms/ml,781
same,Number of Infected Foci In R-Mix Cell Cultures,[3]; Actinonin 20 micrograms/ml,383
same,Number of Infected Foci In R-Mix Cell Cultures,[3]; Actinonin 40 micrograms/ml,147
same,Number of Infected Foci In R-Mix Cell Cultures,[4]; Actinonin 10 micrograms/ml,317
same,Number of Infected Foci In R-Mix Cell Cultures,[4]; Actinonin 20 micrograms/ml,260
same,Number of Infected Foci In R-Mix Cell Cultures,[4]; Actinonin 40 micrograms/ml,190
same,Number of Infected Foci In R-Mix Cell Cultures,[5]; Actinonin 10 micrograms/ml,220
same,Number of Infected Foci In R-Mix Cell Cultures,[5]; Actinonin 20 micrograms/ml,196
same,Number of Infected Foci In R-Mix Cell Cultures,[5]; Actinonin 40 micrograms/ml,151
same,Number of Infected Foci In R-Mix Cell Cultures,[6]; Actinonin 10 micrograms/ml,115
same,Number of Infected Foci In R-Mix Cell Cultures,[6]; Actinonin 20 micrograms/ml,104
same,Number of Infected Foci In R-Mix Cell Cultures,[6]; Actinonin 40 micrograms/ml,75
same,Number of Infected Foci In R-Mix Cell Cultures,[7]; Actinonin 10 micrograms/ml,103
same,Number of Infected Foci In R-Mix Cell Cultures,[7]; Actinonin 20 micrograms/ml,64
same,Number of Infected Foci In R-Mix Cell Cultures,[7]; Actinonin 40 micrograms/ml,41
"CC1(C)[C@@H](O[C@H]2O[C@H](C(=O)O)[C@@H](O)[C@H](O)[C@H]2O[C@@H]2O[C@H](C(=O)O)[C@@H](O)[C@H](O)[C@H]2O)CC[C@]2(C)[C@H]3C(=O)C=C4[C@@H]5C[C@@](C)(C(=O)O)CC[C@]5(C)CC[C@@]4(C)[C@]3(C)CC[C@@H]12 [Glycycrrhizin, Glycyrrhizin]",Number of Infected Foci In R-Mix Cell Cultures,[1]; [10],218
same,Number of Infected Foci In R-Mix Cell Cultures,[1]; [11],175
same,Number of Infected Foci In R-Mix Cell Cultures,[1]; [12],163
same,Number of Infected Foci In R-Mix Cell Cultures,[2]; [10],268
same,Number of Infected Foci In R-Mix Cell Cultures,[2]; [11],233
same,Number of Infected Foci In R-Mix Cell Cultures,[2]; [12],295
same,Number of Infected Foci In R-Mix Cell Cultures,[3]; [10],766
same,Number of Infected Foci In R-Mix Cell Cultures,[3]; [11],938
same,Number of Infected Foci In R-Mix Cell Cultures,[3]; [12],1061
same,Number of Infected Foci In R-Mix Cell Cultures,[4]; [10],426
same,Number of Infected Foci In R-Mix Cell Cultures,[4]; [11],402
same,Number of Infected Foci In R-Mix Cell Cultures,[4]; [12],273
same,Number of Infected Foci In R-Mix Cell Cultures,[5]; [10],265
same,Number of Infected Foci In R-Mix Cell Cultures,[5]; [11],257
same,Number of Infected Foci In R-Mix Cell Cultures,[5]; [12],281
same,Number of Infected Foci In R-Mix Cell Cultures,[6]; [10],138
same,Number of Infected Foci In R-Mix Cell Cultures,[6]; [11],149
same,Number of Infected Foci In R-Mix Cell Cultures,[6]; [12],138
same,Number of Infected Foci In R-Mix Cell Cultures,[7]; [10],130
same,Number of Infected Foci In R-Mix Cell Cultures,[7]; [11],103
same,Number of Infected Foci In R-Mix Cell Cultures,[7]; [12],53
